Values quoted from earlier work as cited in EP4223883A1, “PROCESS FOR PRODUCING TRYPTAMINES” (Infinit Biosystems, priority 2022, dated 2023).

What was measured:
[1] = tested on: PSI M, N-methyltransferase, Psilocybe cubensis, Uniprot: P0DPA9
[2] = tested on: T1, PSI H, Tryptamine 4-monooxygenase, Psilocybe cubensis, Uniprot: A0A286LF02; conditions: substrate taken from the text, not given; Km of the cofactor (NADPH) considered equal
T1 sequence (A0A286LF02 20-507): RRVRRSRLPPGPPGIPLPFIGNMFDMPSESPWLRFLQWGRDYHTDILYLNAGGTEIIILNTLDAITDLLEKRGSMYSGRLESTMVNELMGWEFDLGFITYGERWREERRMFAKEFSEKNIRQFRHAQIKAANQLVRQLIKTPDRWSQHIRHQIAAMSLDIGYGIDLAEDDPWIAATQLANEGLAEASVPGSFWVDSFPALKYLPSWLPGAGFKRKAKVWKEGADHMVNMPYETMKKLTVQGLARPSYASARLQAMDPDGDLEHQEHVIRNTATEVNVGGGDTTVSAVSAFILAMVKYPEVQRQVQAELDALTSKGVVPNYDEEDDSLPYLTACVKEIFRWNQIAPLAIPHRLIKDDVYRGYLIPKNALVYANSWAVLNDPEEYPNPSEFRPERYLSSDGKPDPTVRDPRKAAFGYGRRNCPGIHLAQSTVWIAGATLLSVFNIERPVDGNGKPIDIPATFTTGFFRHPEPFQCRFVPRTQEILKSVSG

[3] = target: T2, PSI K, 4-hydroxytryptamine kinase, Psilocybe cubensis, Uniprot: P0DPA8 (Psilocybe cubensis, UniProt P0DPA8); conditions: substrate taken from the text, not given; Km of the cofactor (ATP) considered equal
T2 sequence (P0DPA8 1-362): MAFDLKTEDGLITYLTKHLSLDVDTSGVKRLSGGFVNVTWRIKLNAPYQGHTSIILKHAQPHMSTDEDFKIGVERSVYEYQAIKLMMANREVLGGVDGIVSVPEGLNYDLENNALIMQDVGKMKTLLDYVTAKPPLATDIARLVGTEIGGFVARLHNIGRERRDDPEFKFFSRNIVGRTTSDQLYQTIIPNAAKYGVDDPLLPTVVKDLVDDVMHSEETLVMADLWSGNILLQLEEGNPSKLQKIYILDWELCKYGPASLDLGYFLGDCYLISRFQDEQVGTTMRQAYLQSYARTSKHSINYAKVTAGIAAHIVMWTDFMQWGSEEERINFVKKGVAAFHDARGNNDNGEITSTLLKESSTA

NCCc1c[nH]c2cccc(OP(=O)(O)O)c12 [norbaeocystin]
Km [1]: 165 µM

NCCc1c[nH]c2ccccc12 [tryptamine, Tryptamine]
Km [2]: 220 µM

NCCc1c[nH]c2cccc(O)c12 [4-hydroxytryptamine]
Km [3]: 80 µM
